According to ChEMBL document CHEMBL6096692, “Discovery of 2(1H)-Quinoxalinone Derivatives as Potent and Selective MAT2A Inhibitors for the Treatment of MTAP-Deficient Cancers” (J Med Chem, 2025):
Calls of active or inactive are those of the source. The rule behind the calls is not given here.

What was measured:
MIA PaCa-2 [1] = test: Antitumor activity against MTAP null human MIA PaCa-2 cells xenografted in mouse assessed as inhibition of SAM production in plasma at 30 to 60 mg/kg, po measured after 28 days; assay type: functional, organism-based; details: dose 30-60 mg/kg, time 28.0 day
Cytochrome P450 2D6 = Cytochrome P450 2D6 (Homo sapiens, UniProt P10635); test: Inhibition of CYP2D6 in human liver microsomes using dextromethorphan as substrate incubated for 10 mins in presence of NADPH by LC-MS/MS analysis; assay type: ADME, Microsome
[2] = AUC (0 to t) in male ICR mouse at 1 mg/kg, iv measured upto 36 hrs by LC-MS/MS analysis; assay type: ADME, organism-based; details: in vivo
[3] = biological target: S-adenosylmethionine synthase isoform type-2 (Mus musculus) (UniProt Q3THS6); test: Inhibition of MAT2A in MTAP null mouse B16-F10 cells assessed as reduction in SAM level measured for 4 hrs by immunoblotting analysis; assay type: cell-based; details: dose <= 1.0 µM
[4] = biological target: Protein arginine N-methyltransferase 5 (Homo sapiens) (UniProt O14744); test: Inhibition of PRMT5 in MTAP-null human MIA PaCa-2 cells incubated for 24 hrs by Western blot analysis; assay type: cell-based
[5] = Lipophilicity, LogD of the compound in 1-Octanol/PBS by shake flask method; assay type: physicochemical
B16-F10 [6] = test: Inhibition of MAT2A in MTAP knockout mouse B16-F10 cells assessed as reduction in SAM level measured for 4 hrs by immunoblotting analysis; assay type: cell-based; details: dose <= 1.0 µM
[7] = Bioavailability in male ICR mouse at 1 mg/kg measured upto 36 hrs by LC-MS/MS analysis; assay type: ADME, organism-based; details: in vivo
B16-F10 [8] = test: Antiproliferative activity against MTAP knockout mouse B16-F10 cells assessed as inhibition of cell proliferation measured for 96 hrs by SRB assay; assay type: functional, cell-based
MDA-MB-231 = test: Antiproliferative activity against MTAP null human MDA-MB-231 cells assessed as inhibition of cell viability measured for 96 hrs by SRB assay; assay type: functional, cell-based
B16-F10 [9] = test: Antitumor activity against MTAP-knockout mouse B16-F10 cells implanted in mouse assessed as reduction in tumor volume at 30 to 60 mg/kg, po administered for 10 days and measured after 12 days; assay type: functional, organism-based; details: dose 30-60 mg/kg, time 22.0 day
SF-126 [10] = test: Induction of DNA damage in human SF-126 cells harboring wild type MTAP assessed as increase in gammaH2AX level at 0.1 to 10 uM measured for 96 hrs by immunofluorescence analysis; assay type: functional, cell-based; details: dose 0.1-10 µM
BXPC-3 = test: Antiproliferative activity against MTAP null human BXPC-3 cells assessed as inhibition of cell viability measured for 96 hrs by SRB assay; assay type: functional, cell-based
[11] = Selectivity index, ratio of IC50 for antiproliferative activity against mouse B16-F10 cells harboring wild type MTAP assessed as inhibition of cell viability to IC50 for antiproliferative activity against MTAP knockout mouse B16-F10 cells assessed as inhibition of cell viability; assay type: functional
SF-126 [12] = test: Induction of DNA damage in MTAP knockout human SF-126 cells assessed as increase in gammaH2AX level at 0.1 to 10 uM measured for 96 hrs by immunofluorescence analysis; assay type: functional, cell-based; details: dose 0.1-10 µM
[13] = Drug concentration in mouse plasma at 30 mg/kg, po; assay type: ADME, organism-based; details: in vivo
[14] = biological target: T1, S-adenosylmethionine synthase isoform type-2 (Homo sapiens, UniProt P31153); test: Inhibition of MAT2A (unknown origin) using L-methionine and ATP as substrate preincubated with compound for 10 mins followed by substrate addition and measured after 60 mins by kinase-glo max reagent based microplate reader analysis
Target sequence in this assay (P31153 whole entry, canonical isoform): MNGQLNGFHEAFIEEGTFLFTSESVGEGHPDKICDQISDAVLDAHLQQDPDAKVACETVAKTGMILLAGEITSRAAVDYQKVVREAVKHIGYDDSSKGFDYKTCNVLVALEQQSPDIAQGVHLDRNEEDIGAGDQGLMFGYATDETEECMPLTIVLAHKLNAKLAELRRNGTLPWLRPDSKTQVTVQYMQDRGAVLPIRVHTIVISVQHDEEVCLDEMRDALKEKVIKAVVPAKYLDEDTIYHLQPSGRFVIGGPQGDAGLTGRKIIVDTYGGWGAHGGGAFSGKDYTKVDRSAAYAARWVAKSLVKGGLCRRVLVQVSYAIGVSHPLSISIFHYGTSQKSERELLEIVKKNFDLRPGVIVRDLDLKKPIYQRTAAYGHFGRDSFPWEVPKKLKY

B16-F10 [15] = test: Antiproliferative activity against mouse B16-F10 cells harboring MTAP D220A mutant assessed as inhibition of cell proliferation measured for 96 hrs by SRB assay; assay type: functional, cell-based
B16-F10 [16] = test: Antiproliferative activity against mouse B16-F10 cells harboring wild type MTAP assessed as inhibition of cell viability measured for 96 hrs by SRB assay; assay type: functional, cell-based; details: B16-F10, 96 h
[17] = Clearance in male ICR mouse at 1 mg/kg, iv measured upto 36 hrs by LC-MS/MS analysis; assay type: ADME, organism-based; details: in vivo
[18] = Plasma protein binding in mouse assessed as unbound fraction; assay type: ADME, cell-free
[19] = biological target: S-adenosylmethionine synthase isoform type-2 (Mus musculus) (UniProt Q3THS6); test: Inhibition of MAT2A in mouse B16-F10 cells assessed as reduction in SAM level measured for 4 hrs by immunoblotting analysis; assay type: cell-based; details: dose <= 1.0 µM
B16-F10 [20] = test: Antiproliferative activity against MTAP knockout mouse B16-F10 cells assessed as inhibition of cell viability measured for 96 hrs by SRB assay; assay type: functional, cell-based; details: B16-F10, 96 h
Daoy = test: Antiproliferative activity against MTAP null human Daoy cells assessed as inhibition of cell viability measured for 96 hrs by SRB assay; assay type: functional, cell-based
[21] = biological target: T1, S-adenosylmethionine synthase isoform type-2; test: Inhibition of MAT2A in human MIA PaCa-2 cells assessed as reduction in SAM level measured for 4 hrs by immunoblotting analysis; assay type: cell-based; details: dose <= 1.0 µM
Target sequence in this assay (P31153 whole entry, looked up, canonical isoform): as the sequence (P31153 whole entry, canonical isoform) above

[22] = biological target: Voltage-gated inwardly rectifying potassium channel KCNH2 (Homo sapiens, UniProt Q12809); test: Inhibition of hERG expressed in CHO cells incubated for 12 hrs by Qpatch assay; assay type: toxicity, cell-based
MKN-45 = test: Antiproliferative activity against MTAP null human MKN-45 cells assessed as inhibition of cell viability measured for 96 hrs by SRB assay; assay type: functional, cell-based
B16-F10 [23] = test: Antitumor activity against mouse B16-F10 cells harboring wild type MTAP implanted in mouse assessed as reduction in tumor volume at 30 to 60 mg/kg, po administered for 10 days and measured after 12 days; assay type: functional, organism-based; details: dose 30-60 mg/kg, time 22.0 day
[24] = Half life in male ICR mouse at 10 mg/kg, po measured upto 36 hrs by LC-MS/MS analysis; assay type: ADME, organism-based; details: in vivo
[25] = Cmax in male ICR mouse at 1 mg/kg, iv measured upto 36 hrs by LC-MS/MS analysis; assay type: ADME, organism-based; details: in vivo
MIA PaCa-2 [26] = test: Antiproliferative activity against MTAP null human MIA PaCa-2 cells assessed as inhibition of cell viability measured for 96 hrs by SRB assay; assay type: functional, cell-based
MIA PaCa-2 [27] = test: Antitumor activity against MTAP null human MIA PaCa-2 cells xenografted in mouse assessed as inhibition of SAM production in tumor at 30 to 60 mg/kg, po measured after 28 days; assay type: functional, organism-based; details: dose 30-60 mg/kg, time 28.0 day
[28] = Plasma protein binding in human assessed as unbound fraction; assay type: ADME, cell-free
[29] = biological target: T1, S-adenosylmethionine synthase isoform type-2; test: Inhibition of MAT2A in MTAP null human MIA PaCa-2 cells assessed as reduction in SAM level measured for 4 hrs by immunoblotting analysis; assay type: cell-based; details: dose <= 1.0 µM
Target sequence in this assay (P31153 whole entry, looked up, canonical isoform): as the sequence (P31153 whole entry, canonical isoform) above

[30] = AUC (0 to t) in male ICR mouse at 10 mg/kg, po measured upto 36 hrs by LC-MS/MS analysis; assay type: ADME, organism-based; details: in vivo
[31] = Half life in male ICR mouse at 1 mg/kg, iv measured upto 36 hrs by LC-MS/MS analysis; assay type: ADME, organism-based; details: in vivo
B16-F10 [32] = test: Antitumor activity against MTAP-knockout mouse B16-F10 cells implanted mouse assessed as reduction in SAM level in tumor at 30 to 60 mg/kg, po administered for 10 days and measured after 12 hrs; assay type: functional, organism-based; details: dose 30-60 mg/kg, time 10.5 day
Cytochrome P450 2C19 = Cytochrome P450 2C19 (Homo sapiens, UniProt P33261); test: Inhibition of CYP2C19 in human liver microsomes using S-mephenytoin as substrate incubated for 10 mins in presence of NADPH by LC-MS/MS analysis; assay type: ADME, Microsome
Sequence of Cytochrome P450 2C19 (P33261 whole entry): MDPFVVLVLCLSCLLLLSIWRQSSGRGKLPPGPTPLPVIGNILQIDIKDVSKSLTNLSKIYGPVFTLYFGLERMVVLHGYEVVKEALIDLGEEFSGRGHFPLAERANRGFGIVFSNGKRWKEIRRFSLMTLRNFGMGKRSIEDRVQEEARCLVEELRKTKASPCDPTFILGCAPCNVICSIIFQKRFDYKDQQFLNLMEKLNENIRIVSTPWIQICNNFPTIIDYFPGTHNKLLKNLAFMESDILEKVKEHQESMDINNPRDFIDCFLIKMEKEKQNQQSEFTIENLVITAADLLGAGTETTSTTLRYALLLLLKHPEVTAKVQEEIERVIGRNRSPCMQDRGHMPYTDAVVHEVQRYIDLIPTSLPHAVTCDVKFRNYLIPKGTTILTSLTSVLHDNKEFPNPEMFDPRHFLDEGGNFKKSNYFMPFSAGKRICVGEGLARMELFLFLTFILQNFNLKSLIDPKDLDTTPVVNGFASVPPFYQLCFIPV

Sequence of S-adenosylmethionine synthase isoform type-2 (Mus musculus) (Q3THS6 whole entry, canonical isoform): as the sequence (P31153 whole entry, canonical isoform) above, with V77I, V87I counted along it
Sequence of Voltage-gated inwardly rectifying potassium channel KCNH2 (Q12809 whole entry): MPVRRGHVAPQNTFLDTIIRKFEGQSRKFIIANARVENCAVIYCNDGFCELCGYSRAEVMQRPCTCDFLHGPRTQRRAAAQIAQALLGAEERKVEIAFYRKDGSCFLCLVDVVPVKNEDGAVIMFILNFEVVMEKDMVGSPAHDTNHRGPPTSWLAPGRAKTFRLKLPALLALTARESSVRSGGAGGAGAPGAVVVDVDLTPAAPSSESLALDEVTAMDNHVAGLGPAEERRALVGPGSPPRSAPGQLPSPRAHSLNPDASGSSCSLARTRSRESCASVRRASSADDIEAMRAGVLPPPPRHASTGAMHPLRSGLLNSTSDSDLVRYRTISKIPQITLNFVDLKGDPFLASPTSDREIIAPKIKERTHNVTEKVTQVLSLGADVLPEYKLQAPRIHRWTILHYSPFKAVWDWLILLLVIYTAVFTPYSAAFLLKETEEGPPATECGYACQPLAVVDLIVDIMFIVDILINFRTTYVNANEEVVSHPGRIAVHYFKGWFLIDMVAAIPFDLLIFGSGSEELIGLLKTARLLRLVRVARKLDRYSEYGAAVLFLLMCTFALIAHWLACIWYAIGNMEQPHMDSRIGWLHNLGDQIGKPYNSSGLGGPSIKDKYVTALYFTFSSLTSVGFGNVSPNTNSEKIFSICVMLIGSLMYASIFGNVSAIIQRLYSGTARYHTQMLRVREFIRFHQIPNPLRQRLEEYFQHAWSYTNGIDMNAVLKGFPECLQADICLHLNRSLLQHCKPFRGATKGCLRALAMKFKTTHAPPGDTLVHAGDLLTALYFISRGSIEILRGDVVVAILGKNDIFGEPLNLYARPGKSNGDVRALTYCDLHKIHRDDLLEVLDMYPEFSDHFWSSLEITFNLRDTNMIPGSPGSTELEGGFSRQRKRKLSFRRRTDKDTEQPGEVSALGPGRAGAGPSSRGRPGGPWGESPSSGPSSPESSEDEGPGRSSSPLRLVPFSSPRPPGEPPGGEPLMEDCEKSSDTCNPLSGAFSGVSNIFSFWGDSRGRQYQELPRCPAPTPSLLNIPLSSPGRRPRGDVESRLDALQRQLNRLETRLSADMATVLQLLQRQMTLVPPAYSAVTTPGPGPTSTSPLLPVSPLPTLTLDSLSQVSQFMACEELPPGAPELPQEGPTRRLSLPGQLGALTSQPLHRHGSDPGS
Sequence of Protein arginine N-methyltransferase 5 (Homo sapiens) (O14744 whole entry): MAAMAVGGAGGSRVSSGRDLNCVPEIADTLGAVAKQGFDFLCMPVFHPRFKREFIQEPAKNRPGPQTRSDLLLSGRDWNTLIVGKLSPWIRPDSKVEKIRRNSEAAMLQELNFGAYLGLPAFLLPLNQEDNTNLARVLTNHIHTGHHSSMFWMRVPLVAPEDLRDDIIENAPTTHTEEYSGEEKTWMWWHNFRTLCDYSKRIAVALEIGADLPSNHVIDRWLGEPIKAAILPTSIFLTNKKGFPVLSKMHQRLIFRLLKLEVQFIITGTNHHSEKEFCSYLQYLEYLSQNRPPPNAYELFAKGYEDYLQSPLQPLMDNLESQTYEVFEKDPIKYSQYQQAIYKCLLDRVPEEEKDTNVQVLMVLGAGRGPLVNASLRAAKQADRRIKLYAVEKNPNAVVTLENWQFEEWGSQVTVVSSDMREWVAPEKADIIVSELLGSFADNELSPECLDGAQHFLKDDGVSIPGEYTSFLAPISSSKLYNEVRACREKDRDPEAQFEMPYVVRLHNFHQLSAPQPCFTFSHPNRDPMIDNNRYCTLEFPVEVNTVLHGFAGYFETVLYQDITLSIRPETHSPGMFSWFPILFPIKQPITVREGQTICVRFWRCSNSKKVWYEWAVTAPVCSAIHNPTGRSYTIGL
Sequence of Cytochrome P450 2D6 (P10635 whole entry): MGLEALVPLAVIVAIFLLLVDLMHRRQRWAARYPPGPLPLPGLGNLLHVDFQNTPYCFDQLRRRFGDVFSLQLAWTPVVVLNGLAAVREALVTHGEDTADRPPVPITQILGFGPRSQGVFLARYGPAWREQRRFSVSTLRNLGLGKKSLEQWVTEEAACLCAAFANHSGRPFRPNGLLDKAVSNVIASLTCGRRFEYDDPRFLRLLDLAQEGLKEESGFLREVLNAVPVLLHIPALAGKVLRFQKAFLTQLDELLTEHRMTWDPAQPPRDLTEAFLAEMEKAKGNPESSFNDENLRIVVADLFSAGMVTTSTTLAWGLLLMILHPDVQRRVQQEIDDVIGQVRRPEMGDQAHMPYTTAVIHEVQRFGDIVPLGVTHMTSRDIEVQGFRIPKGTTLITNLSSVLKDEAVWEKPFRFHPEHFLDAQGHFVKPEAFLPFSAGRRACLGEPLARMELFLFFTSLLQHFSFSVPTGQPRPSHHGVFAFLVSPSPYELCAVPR

IC50 (Cytochrome P450 2D6): 9.2 µM | AUC(0-t) at 36 h [2]: 3100 ng·h/mL | inhibition [3]: Active | inhibition [4]: Active | logD [5]: 3.69 | bioavailability [7]: 118% | Drug uptake [13]: Active | IC50 [14]: 0.049 µM | IC50 (B16-F10 [16]): > 20 µM | clearance [17]: 5.17 mL/min/kg | fraction unbound [18]: 0.016 | inhibition [19]: Dose-dependent-effect | IC50 (B16-F10 [20]): 0.43 µM | inhibition [21]: Dose-dependent-effect | half-life [24]: 6.73 h | Cmax [25]: 985 ng/mL | fraction unbound [28]: 0.003 | inhibition [29]: Dose-dependent-effect | AUC(0-t) at 36 h [30]: 36500 ng·h/mL | half-life [31]: 8.43 h | IC50 (Cytochrome P450 2C19): 8.7 µM
SMILES: Cn1cnc2ccc(-c3nc4ccc(C5CC5)cc4n(-c4ccc(OC(F)F)cc4)c3=O)cc21
Activity (MIA PaCa-2 [1]): Active | inhibition (B16-F10 [6]): Dose-dependent-effect | Activity (B16-F10 [8]): Active | Activity (MDA-MB-231): Active | Activity (B16-F10 [9]): Active | Activity (SF-126 [10]): Active | Activity (BXPC-3): Active | Ratio IC50 [11]: >46.5 | Activity (SF-126 [12]): Active | Activity (B16-F10 [15]): inactive | Activity (Daoy): Active | IC50 [22]: 38 µM | Activity (MKN-45): Active | Activity (B16-F10 [23]): Active | Activity (MIA PaCa-2 [26]): Active | Activity (MIA PaCa-2 [27]): Active | Activity (B16-F10 [32]): Active
